Source: patent US20030181401A1, “Insulin secretion promoter” (KYOWA HAKKO KOGYO CO., LTD., priority 2002, published 2003)

How the values were obtained:
Assay type in all cases: in vivo
db/db mice [1] = test: Test Example 3: serum insulin on day 8 after 7-day oral dosing of saccharides; settings: for serum insulin concentration compared with the control group (in words): continuous daily oral dosing; for Serum insulin concentration after dosing of the individual saccharides: oral 200 + 300 mg/kg daily, 7 days, blood on day 8, no glucose loading, mean ± SD
Experimental: Group of male 9-week-old db/db mice (Clea Japan, Inc.) each consisting of 6 mice were fed CE-2 (Clea Japan, Inc.) for one week, so as to accustom the animals to the environment.
After acclimation, individual aqueous 10% solutions of globotriose (abbreviated “globo” hereinafter), N-acetyllactosamine (abbreviated as “LacNac” hereinafter) and N-acetylneuraminic acid (abbreviated as “NeuAc” hereinafter) were orally administered to the mice at 200 mg (saccharide)/kg body weight in the morning and at 300 mg (saccharide)/kg body weight in the evening.
The same volume of saline was administered to the control group. The individual aqueous saccharide solutions and saline were both dosed daily to the mice for 7 days. During the dosing period, CE-2 was given together with drinking water ad libitum.
Blood was centrifuged (4° C., 10000 rpm, 10 minutes), to obtain serum.
(§1) Insulin in the serum recovered was assayed by enzyme immunoassay using Lebis Insulin kit (for rats-T) (Shibayagi, Co., Ltd.) in the same manner as in the Test Example 1.

db/db mice [2] = test: Test Example 5: serum insulin in glucose tolerance test after 7-day oral dosing of saccharides; settings: for insulin concentration during glucose loading compared with the control group (in words): continuous daily oral dosing; for Serum insulin concentration after glucose loading, 30 minutes / Serum insulin concentration after glucose loading, 120 minutes / Serum insulin concentration after glucose loading, Zero minute: oral 200 + 300 mg/kg daily, 7 days, glucose 2 g/kg oral, mean ± SD
Experimental: (§2) Groups of male 9-week-old db/db mice (Clea Japan, Inc.) each consisting of 6 mice were fed CE-2 (Clea Japan, Inc.) for one week, so as to accustom the animals to the environment.
After acclimation, individual aqueous 10% solutions of lacto-N-neotetraose (abbreviated as “LNnT” hereinafter) and NeuAc were orally administered to the mice at 200 mg (saccharide)/kg body weight in the morning and at 300 mg (saccharide)/kg body weight in the evening. The same volume of saline was administered to the control group. The individual aqueous saccharide solutions and saline were both dosed daily to the mice for 7 days. During the dosing period, CE-2 was given together with drinking water ad libitum.
(§3) After 18-hour starvation from the final dosing on day 7, an aqueous 40% glucose solution was orally administered to 2 g (glucose)/kg body weight to the mice, to perform glucose tolerance test. Zero minute and 30 minutes after glucose loading, blood was taken from a tail vein. […] Blood was centrifuged (4° C., 10000 rpm, 10 minutes), to obtain serum.
as §1

ICR mice [3] = test: Test Example 6: serum insulin after intravenous saccharide with simultaneous oral glucose loading
Experimental: (§4) Groups of male 9-week-old ICR mice (Japan SLC, Inc.) each consisting of 7 mice were fed CE-2 (Clea Japan, Inc.) for one week, so as to accustom the animals to the environment. Then, the mice were fasted for 18 hours.
(§5) An aqueous 10% solution of 2′-FL or NeuAc was intravenously administered to the mice to 500 mg (saccharide)/kg body weight, while an aqueous 40% glucose solution was orally administered simultaneously to 2 g (glucose)/kg body weight, to the mice. To the control group, physiological saline was administered intravenously, while glucose was orally administered simultaneously to 2 g/kg body weight. Zero minute and 30 minutes after glucose loading, blood was taken from a tail vein. […] Blood was centrifuged (4° C., 10000 rpm, 10 minutes), to obtain serum.
Insulin in the serum recovered was assayed by enzyme immunoassay using Lebis Insulin kit (for mice-T) (Shibayagi, Co., Ltd.) in the same manner as in the Test Example 2.

ICR mice [4] = test: Test Example 6: serum glucose after intravenous saccharide with simultaneous oral glucose loading
Experimental: as §4, §5
Furthermore, the glucose concentration in the serum recovered was also assayed. The glucose concentration was assayed, using Glucose CII-TEST WAKO (WAKO Pure Chemical Industries, Ltd.). 2 μl of the recovered serum was placed in a 96-well plate, followed by addition of 200 μl of the chromogenic solution attached to the kit, for incubation at 37° C. for 10 minutes. After incubation, the absorbance at 490 nm was assayed with a plate reader. Herein, a standard curve was prepared by using aqueous 500 mg/dl glucose solution as the standard solution to dilute the standard solution appropriately for the same reaction as for the serum, and plotting the relation between the concentration and the absorbance (490 nm). Based on the prepared standard curve and the absorbance from the reaction with the serum, the glucose concentration in the serum was determined.

db/db mice [5] = test: Test Example 4: serum insulin in glucose tolerance test after 7-day oral dosing of saccharides; settings: for serum insulin concentration during glucose loading compared with the control group (in words): continuous daily oral dosing; for Serum insulin concentration after glucose loading, 30 minutes / Serum insulin concentration after glucose loading, 120 minutes / Serum insulin concentration after glucose loading, Zero minute: oral 200 + 300 mg/kg daily, 7 days, glucose 2 g/kg oral, mean ± SD
Experimental: as §2
After acclimation, individual aqueous 10% solutions of 3′-sialyllactose (abbreviated as “3′-SL” hereinafter), 6′-sialylactose (abbreviated as “6′-SL”) and 2′-FL were orally administered to the mice at 200 mg (saccharide)/kg body weight in the morning and at 300 mg (saccharide)/kg body weight in the evening. The both volume of saline was administered to the control group. The individual aqueous saccharide solutions and saline were both dosed daily to the mice for 7 days. During the dosing period, CE-2 was given together with drinking water ad libitum.
as §3, §1

[6] = ICR mice fasted 18 hours, 500 mg/kg intravenous with simultaneous glucose 2 g/kg oral, 30 minutes, mean ± SD
[7] = ICR mice fasted 18 hours, 500 mg/kg intravenous with simultaneous glucose 2 g/kg oral, 120 minutes, mean ± SD

Row | SMILES | serum insulin concentration compared with the control group (in words) (db/db mice [1]) | Serum insulin concentration after dosing of the individual saccharides (db/db mice [1]) [ng/mL] | insulin concentration during glucose loading compared with the control group (in words) (db/db mice [2]) | Serum insulin concentration after glucose loading, 30 minutes (db/db mice [2]) [ng/mL] | Serum insulin concentration after glucose loading, 120 minutes (db/db mice [2]) [ng/mL] | Serum insulin concentration after glucose loading, Zero minute (db/db mice [2]) [ng/mL] | serum insulin concentration during glucose loading compared with the control group (in words) (db/db mice [5]) | Serum insulin concentration after glucose loading, 30 minutes (db/db mice [5]) [ng/mL] | Serum insulin concentration after glucose loading, 120 minutes (db/db mice [5]) [ng/mL] | Serum insulin concentration after glucose loading, Zero minute (db/db mice [5]) [ng/mL] | further results
1 | CC(=O)N[C@H]1C(O)O[C@H](CO)[C@@H](O[C@@H]2O[C@H](CO)[C@H](O)[C@H](O)[C@H]2O)[C@@H]1O (some centres unmarked) [LacNac, N-acetyllactosamine] | increased | 26.8 ± 11.5 | – | – | – | – | – | – | – | – | –
2 | OC[C@H]1O[C@H](O[C@@H]2[C@H](O)[C@@H](O)[C@H](O[C@H]3[C@H](O)[C@@H](O)C(O)O[C@@H]3CO)O[C@@H]2CO)[C@H](O)[C@@H](O)[C@H]1O (some centres unmarked) [Globo, globotriose] | increased | 23.7 ± 16.4 | – | – | – | – | – | – | – | – | –
3 | CC(=O)N[C@H]1[C@H]([C@H](O)[C@H](O)CO)OC(O)(C(=O)O)C[C@@H]1O (some centres unmarked) [NeuAc, N-acetylneuraminic acid] | increased | 68.4 ± 45.9 | increased | 18.5 ± 8.5 | 30.3 ± 10.7 | 8.9 ± 7.7 | – | – | – | – | Serum insulin concentration after glucose loading, 30 minutes (ICR mice [3]; [6]): 178.3 ± 105.5 pg/mL; Serum insulin concentration after glucose loading, 120 minutes (ICR mice [3]; [7]): 384.4 ± 394.1 pg/mL; serum insulin concentration after glucose loading compared with the control group (in words) (ICR mice [3]; ICR mice, intravenous dosing): increased; Serum glucose concentration after glucose loading, 30 minutes (ICR mice [4]; [6]): 300.9 ± 101.6 mg/dL; Serum glucose concentration after glucose loading, 120 minutes (ICR mice [4]; [7]): 197.6 ± 28.8 mg/dL; Serum glucose concentration after glucose loading, Zero minute (ICR mice [4]; ICR mice fasted 18 hours, 500 mg/kg intravenous with simultaneous glucose 2 g/kg oral, zero minute, mean ± SD): 102.6 ± 12.1 mg/dL; increase of the serum glucose concentration compared with the control group (in words) (ICR mice [4]; ICR mice, intravenous dosing): suppressed
4 | CC(=O)N[C@H]1[C@H](O[C@H]2[C@@H](O)[C@@H](CO)O[C@@H](O[C@H]3[C@H](O)[C@@H](O)C(O)O[C@@H]3CO)[C@@H]2O)O[C@H](CO)[C@@H](O[C@@H]2O[C@H](CO)[C@H](O)[C@H](O)[C@H]2O)[C@@H]1O (mixture of isomers) [LNnT, lacto-N-neotetraose] | – | – | increased | 21.7 ± 13.8 | 25.9 ± 13.2 | 8.9 ± 2.0 | – | – | – | – | –
5 | CC(=O)N[C@H]1[C@H]([C@H](O)[C@H](O)CO)O[C@@](O[C@H]2[C@@H](O)[C@@H](CO)O[C@@H](O[C@H]3[C@H](O)[C@@H](O)C(O)O[C@@H]3CO)[C@@H]2O)(C(=O)O)C[C@@H]1O (some centres unmarked) [3′-SL, 3′-sialyllactose] | – | – | – | – | – | – | increased | 5.1 ± 1.9 | 22.0 ± 12.5 | 6.0 ± 2.2 | –
6 | CC(=O)N[C@H]1[C@H]([C@H](O)[C@H](O)CO)O[C@@](OC[C@H]2O[C@@H](O[C@H]3[C@H](O)[C@@H](O)[C@H](O)O[C@@H]3CO)[C@H](O)[C@@H](O)[C@H]2O)(C(=O)O)C[C@@H]1O [6′-SL, 6′-sialylactose] | – | – | – | – | – | – | increased | 6.6 ± 3.4 | 17.9 ± 6.3 | 5.9 ± 3.0 | –
